One data set relates to H460 cell line. Kind of data set: MTT cell viability assay. The format is cell-based, human. As to conditions: MTT method. The protocol:
(§1) SUNE1 (nasopharyngeal carcinoma), AGS (gastric adenocarcinoma), HeLa (cervix adenocarcinoma), HepG2 (hepatocellular carcinoma), U-87 MG (human glioblastoma cell), U2OS (osteosarcoma), MCF-7 (breast adenocarcinoma), MDA-MB-231 (breast adenocarcinoma), HCT116 (colorectal carcinoma), SW480 (colorectal adenocarcinoma), NCI-H460 (large cell lung carcinoma), NCI-H1650 (adenocarcinoma lung carcinoma), HCC827 (adenocarcinoma lung carcinoma), A549 (lung carcinoma), and CCD-19Lu (human lung fibroblast normal cell) were all obtained from American Type Culture Collection (ATCC, Manassas, VA, USA). Minimum Essential Media (MEM, Gibco®, ThermoFisher Scientific), Dulbecco's Modified Eagle Medium (DMEM, Gibco®, ThermoFisher Scientific), and RPMI-1640 Medium (Gibco®, ThermoFisher Scientific) supplemented with 10% Fetal Bovine Serum (Gibco®, ThermoFisher Scientific), and 100 U/mL penicillin-streptomycin (Gibco™, ThermoFisher Scientific) were used for cell culture. Cells were placed into an incubator with 5% CO2 that temperature was set at 37° C. For subculturing cells, 0.05% Trypsin-EDTA (Gibco®) was used for detaching and a subcultivation ratio of 1:5 was used.
(§2) The cell viability assay was performed by a typical MTT assay. Briefly, 5*10^3 cells were seeded in the 96-well flat bottom plate and allowed to attach overnight. After drug treatment with a serial dilution from 100 μM for 48 h, 10 μL of MTT solution (5 mg/ml prepared in PBS, filtered) was added into each well and incubate for 4 h at 37° C. The formed formazan was then dissolved with SDS solution (10% SDS in 10 mM HCl) and followed the determination of absorbance at 590 nm by a microplate reader. The change in cell viability was then calculated for each drug concentration, then normalized to control. Dose response curves from each assay were fit to a Boltzmann sigmoidal function (GraphPad Prism8, version8.0.0). The cytotoxicity of AGB and its derivatives was determined by the calculation of IC50 value (half maximal inhibitory concentration) from fitted curves, which was the concentration of drug induced 50% cell viability.
For orientation: Tetrazolium dyes change colour on reduction, which living cells bring about.

For another data set, the system named is A549. Nature of the data set: MTT cell viability assay. The class given is cell-based. As to conditions: Homo sapiens, MTT method, 48h, Table 6. The protocol:
as §1, §2

The test system of the next data set is HeLa cell line. Kind of data set: MTT cell viability assay. The class given is cell-based, human. As to conditions: MTT method. The protocol: as §1, §2
Data set [1] concerns Golgi complex in NCI-H460 cells. Kind of data set: Golgi integrity, anti-GM130 immunostaining. The class given is cell-based, human. An excerpt: Based on the ProTargetMiner analysis results, the mitochondrial function and ER stress were studied. […] In cells, proteins were initially synthesized in ER and transport to Golgi apparatus for processing. When a drug blocked ER to Golgi trafficking, the Golgi apparatus would suffer from a dramatic redistribution and disruption. This blocking causes accumulation of unmatured proteins in the ER, thereby disrupting the structure of Golgi apparatus and inducing ER stress. The Golgi disrupting agent, brefeldin A (BFA) was used as a positive control drug. […] The effects of BFA and AGB on the integrity of the Golgi complex were assessed by immunostaining using an anti-GM130 antibody, one of Golgi markers.

The subject of data set [2] is human cancer cell lines (MDA-MB-231, MCF-7, HepG2, HeLa, AGS, HCT116, SW480, SUNE-1, H460, HCC827, H1650, A549). Nature of the data set: MTT cell viability assay, panel of human cancer cell lines. The class given is cell-based. Particulars: four different cancer cell lines, 48-h treatment. The protocol:
as §1, §2

The subject of a further data set is MDA-MB-231 cell line. Kind of data set: MTT cell viability assay. The format is cell-based, human. Particulars: MTT method, 48 h. The protocol:
as §1, §2

The next data set concerns AGS cell line. Nature of the data set: MTT cell viability assay. The class given is cell-based, human. As to conditions: MTT method, 48 h. The protocol:
as §1, §2

Setting [3] is: Homo sapiens, NCI-H460, 48h, Table 6, read-out: IC50 H460.
The mark [4] stands for this setting: Homo sapiens, HeLa, 48h, Table 6, read-out: IC50 HeLa.
The mark [5] stands for this setting: 48 h, read-out: IC50 HeLa cell line.
The mark [6] stands for this setting: 48 h, read-out: IC50 H460 cell line.

Where two headings read alike, the source gives them in different places.

One may read the IC50 as the midpoint of a concentration-inhibition curve.

As to `CCCC(=O)c1c(O)c(Cc2c(O)c(C(=O)OC)c(O)c(C(=O)C(C)C)c2O)c(O)c(C)c1OC`, the IC50 with H460 cell line (setting [3]) came out at 1.14 µM.
For the compound `CCC(=O)c1c(O)c(Cc2c(O)c(Cc3c(O)c(C)c(OC)c(C(=O)CC)c3O)c(O)c(C(=O)CCC(O)OC)c2O)c(O)c(C)c1OC` (stereo not drawn), the figures for the IC50 in the data set on A549, in the data set with HeLa cell line (setting [4]) and with H460 cell line (setting [3]) were 41.9 µM, 3.56 µM and 4.67 µM, respectively.
Take `C[C@H]1CCC/C=C/[C@@H]2C[C@H](O)C[C@H]2[C@H](O)/C=C/C(=O)O1` [BFA, brefeldin A]: the “GM130 distribution (Golgi integrity)” value in data set [1] was “redistribution of GM130”.
For `CCC(C)C(=O)c1c(O)c(Cc2cc(C)ccc2O)c(O)c(C(=O)OC)c1O` (stereo not drawn), the IC50 came to 20.5 µM in the data set with A549, 3.96 µM in the data set on HeLa cell line (setting [4]) and 2.99 µM in the data set with H460 cell line (setting [3]).
Regarding Agrimol L [AGL], the “cytotoxicity compared with AGB” value in data set [2] is given as “significantly lower cytotoxicity than AGB”. Further, the IC50 in the data set with HeLa cell line (setting [5]) is 35.1 µM; in the data set on MDA-MB-231 cell line, more than 50 µM; with AGS cell line it was more than 50 µM; with H460 cell line (setting [6]), more than 50 µM.
Take Agrimol H [AGH]: the IC50 in the data set with HeLa cell line (setting [5]) stood at 1.55 µM; in the data set on MDA-MB-231 cell line it was 2.84 µM; in the data set with AGS cell line it was 5.43 µM; in the data set with H460 cell line (setting [6]) it was 2.66 µM.
As to `CCCC(=O)c1c(O)c(Cc2c(O)c(Cc3c(O)c(C)c(OC)c(C(=O)CCC)c3O)c(O)c(C(=O)c3ccccc3)c2O)c(O)c(C)c1OC`, the IC50 in the data set on A549 stood at 19.3 µM; in the data set with HeLa cell line (setting [4]) it was 1.23 µM; in the data set with H460 cell line (setting [3]), 2.75 µM.
Regarding `CCC(C)C(=O)c1c(O)c(Cc2ccccc2O)c(Cl)c(C(=O)OC)c1O` (stereo not drawn), the IC50 with H460 cell line (setting [3]) is 2.05 µM.
With `CCCC(=O)c1c(O)cc(O)c(C)c1OC` [AGS], in data set [2], the “cytotoxicity compared with AGB” value is listed as “significantly lower cytotoxicity than AGB”. Besides, the IC50 with HeLa cell line (Homo sapiens, HeLa, 48 h, read-out: IC50 HeLa cell line) is more than 50 µM; in the data set on MDA-MB-231 cell line (Homo sapiens, MDA-MB-231), more than 50 µM; with AGS cell line (Homo sapiens, AGS), more than 50 µM; in the data set on H460 cell line (Homo sapiens, NCI-H460, 48 h, read-out: IC50 H460 cell line), more than 50 µM.
As to `CCCC(=O)c1c(O)c(Cc2c(O)c(C(=O)c3ccccc3)c(O)c(C(=O)c3ccccc3)c2O)c(O)c(C)c1OC`, the IC50 with A549 was 28.4 µM; with HeLa cell line (setting [4]), 3.24 µM; in the data set on H460 cell line (setting [3]) it was 3.13 µM.
On to `CCCC(=O)c1c(O)c(Cc2c(O)c(C)c(O)c(Cc3c(O)c(C)c(OC)c(C(=O)CCC)c3O)c2O)c(O)c(C)c1OC`, for which the IC50 with H460 cell line (setting [3]) came to 3.78 µM.
For the compound `CCCC(=O)c1c(O)c(Cc2c(O)c(C)c(OC)c(C(=O)CCC)c2O)c(O)c(Cc2c(O)c(C)c(OC)c(C(=O)CCC)c2O)c1O` [AGC, Agrimol C], the IC50 in the data set on HeLa cell line (setting [5]) came to 1.52 µM; with MDA-MB-231 cell line, 2.44 µM; in the data set with AGS cell line, 8.01 µM; in the data set with H460 cell line (setting [6]) it was 1.76 µM.
On to `CCCC(=O)c1c(O)c(Cc2c(O)c(Cc3cc(OC)c(OC)c(OC)c3)c(O)c(C(=O)C(C)CC)c2O)c(O)c(C)c1OC` (stereo not drawn), for which the IC50 in the data set on A549 was 8.53 µM; in the data set with HeLa cell line (setting [4]), 2.06 µM; with H460 cell line (setting [3]), 2.3 µM.
Turning to `CCCC(=O)c1c(O)c(Cc2c(O)c(Cc3c(O)c(C)c(OC)c(C(=O)CCC)c3O)c(O)c(C(=O)C3CCCCC3)c2O)c(O)c(C)c1OC`, the figures for the IC50 in the data set on HeLa cell line (setting [4]) and with H460 cell line (setting [3]) were 1.44 µM and 2.3 µM, respectively.
